The values below come from patent publication EP0942911B1, “BENZOPYRANOPYRROLE AND BENZOPYRANOPYRIDINE ALPHA-1 ADRENERGIC COMPOUNDS” (Abbott Laboratories, priority 1996, dated 1998).

Structures can show the parent of a compound that is named as a salt. Where two headings read alike, the source gives them in different places.

Experiment in all cases: biochemical
For assay [1], the target named is T1, α-1A adrenoreceptor (rat submaxillary gland) (Rattus norvegicus, UniProt P43140).
T1 sequence (P43140 1-466): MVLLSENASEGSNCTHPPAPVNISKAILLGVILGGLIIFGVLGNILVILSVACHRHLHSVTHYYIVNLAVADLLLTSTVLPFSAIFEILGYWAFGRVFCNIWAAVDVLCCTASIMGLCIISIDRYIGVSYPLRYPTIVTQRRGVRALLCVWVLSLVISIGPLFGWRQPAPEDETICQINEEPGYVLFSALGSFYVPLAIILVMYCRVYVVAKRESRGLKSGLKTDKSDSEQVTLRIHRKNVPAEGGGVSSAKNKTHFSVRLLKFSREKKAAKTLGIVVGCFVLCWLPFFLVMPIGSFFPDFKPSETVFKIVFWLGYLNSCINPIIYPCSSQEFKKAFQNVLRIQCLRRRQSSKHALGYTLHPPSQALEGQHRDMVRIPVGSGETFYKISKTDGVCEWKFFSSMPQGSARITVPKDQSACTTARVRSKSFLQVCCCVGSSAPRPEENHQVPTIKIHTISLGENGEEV
In kind it is binding. The note with it: read-out: Radioligand Binding (Ki, nM) 1A (Rat). How it is done: Additionally, binding affinity against the pharrnacologically defined α-1A adrenoreceptor (rat submaxillary gland) was measured.
(§1) On the fifth day of culture, growth medium was removed from cells grown in roller bottles, and the cells were washed twice with PBS (Sigma, 120 mM NaCl, 2.7 mM KCl, 10 mM Na2HPO4-NaH2PO4, pH = 7.4). Cells were detached from the roller bottles by incubating for 15 minutes at 37 °C in a Tris-EDTA solution (10 mM Tris, 100 mM NaCl, 1 mM EDTA, pH = 7.4). The cell suspension from each roller bottle was decanted into tared centrifuge tubes and kept on ice. An aliquot of each cell suspension was generally taken for cell counting. Cells were centrifuged at 3000 X G for 5 min at 2-4 °C, washed with PBS and recentrifuged. The supernatant was decanted and the pellet weighed to determine the wet weight of cells. Cells were washed a final time in 40 vol 5 mM Tris-HCl, 5 mM EDTA, pH = 7.7, and centrifuged at 40,000 X G for 10 minutes. Cells were homogenized in 10 mL of 50 mM Tris-HCl, 5 mM EDTA (pH = 7.4) and diluted to 40 mL/tube. Homogenates were centrifuged at 40,000 X G for 10 minutes. The supernatant was decanted and the pellets rehomogenized in 50 mM Tris-HCl (pH = 7.4) and centrifuged as before. The supernatant was decanted and the homogenate resuspended in 6.25 volumes (per gram wet weight) of 50 mM Tris-HCl and aliquots of the pooled homogenates frozen in liquid N2 and stored at -70 °C until the time of assay. Rat submaxillary glands were used for α-1A adrenoreceptors and were prepared essentially as described (Michel, A. D., Loury, D. N. and Whiting, R. L., Brit. J. Pharmacol. 98: 83-889 (1989)).
(§2) Receptor binding assays for α-1 adrenoreceptors were performed essentially as described by Greengrass and Bremner (Eur. J. Pharmacol. 55: 323-326 (1979)). […] Radioactivity was determined by standard liquid scintillation techniques. Data were analyzed as previously described (Hancock, A. A., Kyncl, J. J., Martin, Y. C. and DeBernardis, J. F., J. Receptor Res. 8: 23-46 (1988)).

Assay [2] deals with T2, α-1a adrenoreceptor (Bos taurus, UniProt P18130).
T2 sequence (P18130 1-466): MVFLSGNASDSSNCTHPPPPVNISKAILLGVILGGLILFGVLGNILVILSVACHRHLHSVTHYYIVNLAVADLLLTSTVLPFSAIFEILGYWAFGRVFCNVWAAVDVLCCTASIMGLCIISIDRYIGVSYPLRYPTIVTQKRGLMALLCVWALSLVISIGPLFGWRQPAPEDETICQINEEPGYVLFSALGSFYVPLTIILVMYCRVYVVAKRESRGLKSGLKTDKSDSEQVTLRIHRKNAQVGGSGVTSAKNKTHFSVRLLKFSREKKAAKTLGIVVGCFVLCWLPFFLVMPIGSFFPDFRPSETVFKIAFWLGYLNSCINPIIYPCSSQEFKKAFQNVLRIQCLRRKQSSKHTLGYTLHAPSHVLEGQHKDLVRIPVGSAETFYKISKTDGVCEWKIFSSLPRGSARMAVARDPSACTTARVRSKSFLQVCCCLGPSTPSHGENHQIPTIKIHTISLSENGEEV
In kind it is binding, bovine. As to conditions: read-out: Radioligand Binding (Ki, nM) 1a (Bovine).
Source text: (§3) The cDNA clones encoding the α-1 adrenoreceptors (α-1a, α-1b, and α-1d) were obtained from TULCO (Triangle Universities Licensing Consortium, Research Triangle Park, NC) and inserted into the eukaryotic expression vector SnaB30. In this vector, expression of the adrenoreceptor gene is under the transcriptional control of an SV40 early promoter. Positive drug selection is provided by a neomycin-resistance gene. Mouse fibroblast cells (LTK) were transfected with the α1 expression plasmids and grown in Dulbecco's modified Eagle's medium (DMEM) containing 10% fetal calf serum and 30 µM G418. Stable G418-resistant parental lines were generated, with successful expression of adrenoreceptor protein monitored using radioligand binding techniques. Stable single cell clones derived from the parental lines were screened in adrenoreceptor binding assays to identify clones having high adrenoreceptor density. Roller bottle cultures of the cloned lines were used to provide cell membranes for subsequent adrenoreceptor binding characterization studies. A cell line containing the SnaB30 vector expressing the human erythropoietin gene served as a negative control.
(§4) For adrenoreceptor binding assays, large scale membrane preparations were utilized in which 6 million cells were seeded into small (450 cm^2) Corning tissue culture roller bottles. 200 mL of DMEM containing 10% fetal calf serum and 300 µM G418 were added to each roller bottle. A 95% air / 5% CO2 gas mixture (sterile) was injected into each roller bottle prior to sealing. The bottles were then incubated at 37 °C on a roller rack for 5 days. Cells were re-fed with fresh medium after 3 days in culture.
as §1, §2

Assay [3] addresses T3, α-1d adrenoreceptor (Rattus norvegicus, UniProt P23944).
T3 sequence (P23944 1-561): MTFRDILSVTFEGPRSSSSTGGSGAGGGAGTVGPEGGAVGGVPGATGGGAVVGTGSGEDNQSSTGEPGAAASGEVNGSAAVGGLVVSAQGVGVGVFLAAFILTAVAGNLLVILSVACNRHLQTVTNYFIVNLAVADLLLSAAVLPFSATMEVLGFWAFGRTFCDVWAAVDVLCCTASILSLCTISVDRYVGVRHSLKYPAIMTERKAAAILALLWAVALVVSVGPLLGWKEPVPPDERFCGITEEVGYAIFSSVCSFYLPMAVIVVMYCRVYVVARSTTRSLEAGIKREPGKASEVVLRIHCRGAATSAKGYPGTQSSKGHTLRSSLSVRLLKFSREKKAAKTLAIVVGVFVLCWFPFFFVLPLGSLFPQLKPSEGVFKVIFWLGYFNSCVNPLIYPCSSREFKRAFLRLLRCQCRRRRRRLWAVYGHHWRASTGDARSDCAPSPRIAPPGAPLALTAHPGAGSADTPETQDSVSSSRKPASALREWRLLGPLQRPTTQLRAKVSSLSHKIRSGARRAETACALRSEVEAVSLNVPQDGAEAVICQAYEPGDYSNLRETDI
In kind it is binding. The note with it: read-out: Radioligand Binding (Ki, nM) 1d (Rat).
Source text: as §3, §4, §1, §2

Assay [4] deals with T4, α-1b adrenoreceptor (Mesocricetus auratus, UniProt P18841).
T4 sequence (P18841 1-515): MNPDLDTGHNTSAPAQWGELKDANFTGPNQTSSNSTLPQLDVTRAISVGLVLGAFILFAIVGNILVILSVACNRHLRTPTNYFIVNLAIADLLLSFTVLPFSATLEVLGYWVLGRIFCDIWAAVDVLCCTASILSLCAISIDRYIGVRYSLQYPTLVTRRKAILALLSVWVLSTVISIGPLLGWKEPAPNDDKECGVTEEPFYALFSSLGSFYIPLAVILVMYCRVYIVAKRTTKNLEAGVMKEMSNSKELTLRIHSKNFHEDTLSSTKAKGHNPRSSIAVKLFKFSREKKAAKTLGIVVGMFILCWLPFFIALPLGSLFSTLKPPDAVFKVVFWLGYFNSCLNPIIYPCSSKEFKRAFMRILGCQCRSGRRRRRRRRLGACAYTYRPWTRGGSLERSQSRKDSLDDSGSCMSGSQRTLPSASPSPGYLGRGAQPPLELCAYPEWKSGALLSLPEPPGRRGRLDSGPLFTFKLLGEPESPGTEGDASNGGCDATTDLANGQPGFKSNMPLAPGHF
In kind it is binding, hamster. As to conditions: read-out: Radioligand Binding (Ki, nM) 1b (Hamster).
Source text: as §3, §4, §1, §2

Setting [5] is: [3H]-prazosin radioligand, cloned receptor in LTK cell membranes.

Consider “3-[2-((±)-trans-10-Methoxy-1,3,4,4a,5,10b-hexahydro-2H-[1]-benzopyrano[3,4-c]pyrido-3-yl)ethyl]-6,7-dimethoxy-quinazoline-2,4(1H,3H)-dione hydrochloride [Example 91]”, for which the inhibition constant Ki (usually a measure of affinity in units of concentration, obtained from inhibition or displacement) came to 0.102 nM in assay [1] ([3H]-prazosin radioligand, rat submaxillary gland membranes); 0.066 nM in assay [2] (setting [5]); 0.495 nM in assay [3] (setting [5]); 1.46 nM in assay [4] (setting [5]).

Turning to `O=c1[nH]c2c(sc3cccnc32)c(=O)n1CCCCN1C[C@@H]2COc3ccccc3[C@H]2C1` (racemic) [Example 71, 3-[4-((±)-trans-1,2,3,3a,4,9b-hexahydro-[1]-benzopyrano[3,4-c]pyrrol-2-yl)butyl]-pyrido[2',3':4,5]thieno[3,2-d]pyrimidine-2,4(1H,3H)-dione hydrochloride], the Ki in assay [1] amounted to 0.065 nM; in assay [2], 0.068 nM; in assay [3] it was 0.169 nM; in assay [4] it was 0.634 nM.

As for `COc1cccc2c1[C@H]1CN(CCCCn3c(=O)[nH]c4c(sc5cccnc54)c3=O)C[C@@H]1CO2` (racemic) [Example 72, 3-[4-((±)-trans-9-Methoxy-1,2,3,3a,4,9b-hexahydro-[1]-benzopyrano[3,4-c]pyrrol-2-yl)butyl]-pyrido[2',3':4,5]thieno[3,2-d]pyrimidine-2,4(1H,3H)-dione dihydrochloride], the Ki turned out to be 0.107 nM in assay [1], 0.133 nM in assay [2], 0.804 nM in assay [3] and 3.54 nM in assay [4].

`COc1cccc2c1[C@@H]1CN(CCCCn3c(=O)[nH]c4c(sc5cccnc54)c3=O)C[C@@H]1CO2` (racemic) [Example 73, 3-[4-((±)-cis-9-Methoxy-1,2,3,3a,4,9b-hexahydro-[1]-benzopyrano[3,4-c]pyrrol-2-yl)butyl]-pyrido[2',3':4,5]thieno[3,2-d]pyrimidine-2,4[1H,3H)-dione dihydrochloride]: the Ki in assay [1] is 0.087 nM; in assay [2], 0.038 nM; in assay [3], 0.187 nM; in assay [4], 1.31 nM.

For the compound `COc1ccc2c(c1)[C@@H]1CN(CCCCn3c(=O)[nH]c4c(sc5ncccc54)c3=O)C[C@@H]1CO2` (racemic) [Example 75, 3-[4-((±)-cis-8-Methoxy-1,2,3,3a,4,9b-hexahydro-[1]-benzopyrano[3,4-c]pyrrol-2-yl)butyl]-pyrido[3',2':4,5]thieno[3,2-d]pyrimidine-2,4(1H,3H)-dione dihydrochloride], the Ki in assay [1] worked out at 5.73 nM; in assay [2], 1.89 nM; in assay [3], 18.3 nM; in assay [4], 52.1 nM.

Regarding `COc1ccc2c(c1)[C@@H]1CN(CCCCn3c(=O)[nH]c4c(sc5nccnc54)c3=O)C[C@@H]1CO2` (racemic) [Example 76, 3-[4-((±)-cis-8-Methoxy-1,2,3,3a,4,9b-hexahydro-[1]-benzopyrano[3,4-c]pyrrol-2-yl)butyl]-pyrazino[2',3':4,5]thieno[3,2-d]pyrimidine-2,4(1H,3H)-dione hydrochloride], the Ki is 11.7 nM in assay [1], 6.21 nM in assay [2], 12.9 nM in assay [3] and 78.6 nM in assay [4].

As for `COc1ccc2c(c1)[C@@H]1CN(CCCn3c(=O)[nH]c4c(sc5ncccc54)c3=O)C[C@@H]1CO2` (racemic) [Example 77, 3-[3-((±)-cis-8-Methoxy-1,2,3,3a,4,9b-hexahydro-[1]-benzopyrano[3,4-c]pyrrol-2-yl)propyl]-pyrido[3',2':4,5]thieno[3,2-d]pyrimidine-2,4(1H,3H)-dione hydrochloride], the values for the inhibition constant (Ki) in assay [1], in assay [2] and in assay [3] were 99.7 nM, 27 nM and 106 nM, respectively.

Turning to `COc1ccc2c(c1)[C@@H]1CN(CCn3c(=O)[nH]c4c(sc5ncccc54)c3=O)C[C@@H]1CO2` (racemic) [Example 78, 3-[2-((±)-cis-8-Methoxy-1,2,3,3a,4,9b-hexahydro-[1]-benzopyrano[3,4-c]pyrrol-2-yl)ethyl]-pyrido[3',2':4,5]thieno[3,2-d]pyrimidine-2,4(1H,3H)-dione hydrochloride], the Ki in assay [1] was determined as 0.297 nM; in assay [2] it was 0.122 nM; in assay [3], 0.478 nM; in assay [4], 1.88 nM.
